Article PMC10269926, “The LiaFSR-LiaX System Mediates Resistance of Enterococcus faecium to Peptide Antibiotics and to Aureocin A53- and Enterocin L50-Like Bacteriocins” (Microbiology Spectrum, 2023)
In brackets after ≈: the same amount, converted by molar mass. Read-outs that look alike come from different tables or passages of the source. Where no end group is shown, it is not given here.

Assays:
[1] = test system: E. faecium LMGT 2783 (WT); experiment: microbe, parasite or virus in culture
Method: (§1) The sensitivity of the mutants to AurA53- and EntL50-like bacteriocins, nisin, RAM, GRA, carbenicillin, and chlortetracycline was determined using microtiter plates with serial 2-fold dilutions of the antimicrobials, as described previously ([41]). The lowest concentration of the agent reducing visible bacterial growth by at least 50% was taken as the MIC (MIC50) value. The sensitivity to other antibiotics was determined using agar plates with antibiotic strips as described previously ([12]). The antibiotic concentration at the point where the inhibition zone intersected the strip was taken as the MIC value. The antibiotic susceptibilities of E. faecium LMGT 2783, MUT_130 to MUT_132, MUT_136 to MUT_139, and MUT_140 and MUT_141 were tested in ISO-BHI medium (Oxoid) supplemented with 5 μg/mL Em when appropriate, while those of E. faecium MUT_142 to MUT_149 were tested in CM17 medium supplemented with 5 μg/mL Em. To study the effects of NaCl and sodium dodecyl sulfate (SDS) on bacterial growth, saturated overnight cultures of E. faecium were used for inoculation at a dilution of 1:100 in BHI medium with serial dilutions of these compounds at concentrations of 0.5 to 10% (wt/vol) and 3.0 × 10^−2 to 2.5 × 10^−3% (wt/vol), respectively. Bacterial cultures were incubated at 37°C without shaking for 24 h in a Bioscreen turbidometric automated analyzer (Bioscreen C, Growth Curves Ltd., Finland) in Honeycomb 100-well plates (Oy Growth Curves Ab Ltd.). […] The assays were made at least in triplicate.

[2] = test system: E. faecium MUT_143 (ΔliaFSR pGhost9 empty vector); conditions: antibiotic strips on agar, CM17 + 5 μg/mL Em, mean of three biological replicates
Method: as §1

[3] = test system: E. faecium MUT_144 (ΔliaFSR pGh:PptcB:liaS); conditions: antibiotic strips on agar, CM17 + 5 μg/mL Em, mean of three biological replicates
Method: as §1

[4] = test system: E. faecium MUT_145 (ΔliaFSR pGh:PptcB:liaR); conditions: antibiotic strips on agar, CM17 + 5 μg/mL Em, mean of three biological replicates
Method: as §1

[5] = test system: E. faecium MUT_146 (ΔliaFSR pGh:PptcB:liaSR); conditions: antibiotic strips on agar, CM17 + 5 μg/mL Em, mean of three biological replicates
Method: as §1

[6] = test system: E. faecium MUT_147 (ΔliaFSR ΔliaX pGhost9 empty vector); conditions: antibiotic strips on agar, CM17 + 5 μg/mL Em, mean of three biological replicates
Method: as §1

[7] = test system: E. faecium MUT_148 (ΔliaFSR ΔliaX pGh:PptcB:liaS); conditions: antibiotic strips on agar, CM17 + 5 μg/mL Em, mean of three biological replicates
Method: as §1

[8] = test system: E. faecium MUT_149 (ΔliaFSR ΔliaX pGh:PptcB:liaR); conditions: antibiotic strips on agar, CM17 + 5 μg/mL Em, mean of three biological replicates
Method: as §1

[9] = test system: E. faecium MUT_150 (ΔliaFSR ΔliaX pGh:PptcB:liaSR); conditions: antibiotic strips on agar, CM17 + 5 μg/mL Em, mean of three biological replicates
Method: as §1

[10] = test system: spontaneous E. faecium BHT-B-resistant mutants
Method: Spontaneous resistant mutants were obtained by growing E. faecium LMGT 2783 in the presence of the bacteriocin as described previously ([41]). […] The stability of changes in BHT-B sensitivity was determined by continuously subculturing mutants in BHI broth without bacteriocin. Subcultures were formed at 24-h intervals, and sensitivity to BHT-B was validated after 1, 5, and 10 passages with simultaneous control of culture purity.
as §1

[11] = test system: E. faecium MUT_140 (liaFSR deletion) and MUT_141 (liaFSR plus liaX deletion); experiment: Susceptibility of deletion strains as a group (microtiter MIC50 or antibiotic strips); type: cell-based, Enterococcus faecium; conditions: for Fold increase in sensitivity relative to WT: both deletion strains MUT_140 and MUT_141; for Effect of the deletions on sensitivity (in words): both deletion strains MUT_140 and MUT_141 compared with WT
Method: as §1

[12] = test system: E. faecium LMGT 2783 and its spontaneous mutants; experiment: Effect of NaCl and SDS on bacterial growth (Bioscreen); type: cell-based, Enterococcus faecium; conditions: WT LMGT 2783 and all mutants, BHI, 37°C, 24 h, inoculum 1:100, lowest concentration (wt/vol) with at least 50% growth inhibition, at least triplicate
Method: (§2) The sensitivity of the mutants to AurA53- and EntL50-like bacteriocins, nisin, RAM, GRA, carbenicillin, and chlortetracycline was determined using microtiter plates with serial 2-fold dilutions of the antimicrobials, as described previously ([41]). The lowest concentration of the agent reducing visible bacterial growth by at least 50% was taken as the MIC (MIC50) value. The sensitivity to other antibiotics was determined using agar plates with antibiotic strips as described previously ([12]). The antibiotic concentration at the point where the inhibition zone intersected the strip was taken as the MIC value. The antibiotic susceptibilities of E. faecium LMGT 2783, MUT_130 to MUT_132, MUT_136 to MUT_139, and MUT_140 and MUT_141 were tested in ISO-BHI medium (Oxoid) supplemented with 5 μg/mL Em when appropriate, while those of E. faecium MUT_142 to MUT_149 were tested in CM17 medium supplemented with 5 μg/mL Em. To study the effects of NaCl and sodium dodecyl sulfate (SDS) on bacterial growth, saturated overnight cultures of E. faecium were used for inoculation at a dilution of 1:100 in BHI medium with serial dilutions of these compounds at concentrations of 0.5 to 10% (wt/vol) and 3.0 × 10^−2 to 2.5 × 10^−3% (wt/vol), respectively. […]

E. faecium MUT_132 = experiment: Effect of SDS on bacterial growth (Bioscreen); type: cell-based, Enterococcus faecium
Method: as §2

[13] = test system: E. faecium LMGT 2783 (WT); experiment: MIC50, microtiter plates with serial 2-fold dilutions; type: cell-based, Enterococcus faecium; conditions: lowest concentration reducing visible growth by at least 50%, ISO-BHI medium, mean of three biological replicates
Method: as §1

[14] = test system: E. faecium MUT_143 (ΔliaFSR pGhost9 empty vector); experiment: as above; type: cell-based, Enterococcus faecium; conditions: microtiter 2-fold dilutions, at least 50% growth reduction, CM17 + 5 μg/mL Em, mean of three biological replicates
Method: as §1

[15] = test system: E. faecium MUT_144 (ΔliaFSR pGh:PptcB:liaS); experiment: as above; type: cell-based, Enterococcus faecium; conditions: microtiter 2-fold dilutions, at least 50% growth reduction, CM17 + 5 μg/mL Em, mean of three biological replicates
Method: as §1

[16] = test system: E. faecium MUT_145 (ΔliaFSR pGh:PptcB:liaR); experiment: as above; type: cell-based, Enterococcus faecium; conditions: microtiter 2-fold dilutions, at least 50% growth reduction, CM17 + 5 μg/mL Em, mean of three biological replicates
Method: as §1

[17] = test system: E. faecium MUT_146 (ΔliaFSR pGh:PptcB:liaSR); experiment: as above; type: cell-based, Enterococcus faecium; conditions: microtiter 2-fold dilutions, at least 50% growth reduction, CM17 + 5 μg/mL Em, mean of three biological replicates
Method: as §1

[18] = test system: E. faecium MUT_147 (ΔliaFSR ΔliaX pGhost9 empty vector); experiment: as above; type: cell-based, Enterococcus faecium; conditions: microtiter 2-fold dilutions, at least 50% growth reduction, CM17 + 5 μg/mL Em, mean of three biological replicates
Method: as §1

[19] = test system: E. faecium MUT_148 (ΔliaFSR ΔliaX pGh:PptcB:liaS); experiment: as above; type: cell-based, Enterococcus faecium; conditions: microtiter 2-fold dilutions, at least 50% growth reduction, CM17 + 5 μg/mL Em, mean of three biological replicates
Method: as §1

[20] = test system: E. faecium MUT_149 (ΔliaFSR ΔliaX pGh:PptcB:liaR); experiment: as above; type: cell-based, Enterococcus faecium; conditions: microtiter 2-fold dilutions, at least 50% growth reduction, CM17 + 5 μg/mL Em, mean of three biological replicates
Method: as §1

[21] = test system: E. faecium MUT_150 (ΔliaFSR ΔliaX pGh:PptcB:liaSR); experiment: as above; type: cell-based, Enterococcus faecium; conditions: microtiter 2-fold dilutions, at least 50% growth reduction, CM17 + 5 μg/mL Em, mean of three biological replicates
Method: as §1

[22] = LMGT 2783, WT, agar plates with antibiotic strips, point where inhibition zone intersects strip, ISO-BHI medium, mean of three biological replicates
[23] = four mutants MUT_132, MUT_136, MUT_137, MUT_138, span over the mutants

Compound | Effect of the deletions on sensitivity (in words) [11] | MIC50 [13] [µg/mL] | MIC50 [14] [µg/mL] | MIC50 [15] [µg/mL] | MIC50 [16] [µg/mL] | MIC50 [17] [µg/mL] | MIC50 [18] [µg/mL] | MIC50 [19] [µg/mL] | MIC50 [20] [µg/mL] | MIC50 [21] [µg/mL] | other results
CCCCCCCCCC(=O)N[C@@H](Cc1c[nH]c2ccccc12)C(=O)N[C@H](CC(N)=O)C(=O)N[C@@H](CC(=O)O)C(=O)N[C@@H]1C(=O)NCC(=O)N[C@@H](CCCN)C(=O)N[C@@H](CC(=O)O)C(=O)N[C@H](C)C(=O)N[C@@H](CC(=O)O)C(=O)NCC(=O)N[C@H](CO)C(=O)N[C@@H]([C@H](C)CC(=O)O)C(=O)N[C@@H](CC(=O)c2ccccc2N)C(=O)O[C@@H]1C [DAP, daptomycin] | – | – | – | – | – | – | – | – | – | – | MIC [1, 22]: 3 µg/mL (≈ 1.85 µM); MIC [2]: 0.38 µg/mL; MIC [3]: 0.38 µg/mL; MIC [4]: 6 µg/mL; MIC [5]: 3 µg/mL; MIC [6]: 0.38 µg/mL; MIC [7]: 0.38 µg/mL; MIC [8]: 12 µg/mL; MIC [9]: 8 µg/mL; DAP MIC of the BHT-B-resistant mutants ([10]; BHT-B-resistant mutants obtained, antibiotic strips): ≤ 8 µg/mL; Fold increase in sensitivity relative to WT [11]: 48 fold
CNC(C)C1CCC(N)C(OC2C(N)CC(N)C(OC3OCC(C)(O)C(NC)C3O)C2O)O1 (stereo not shown) [GEN, gentamicin] | unaffected | – | – | – | – | – | – | – | – | – | MIC ([1]; Enterococcus faecium): 4 µg/mL (≈ 8.38 µM); Fold-lower sensitivity than that of WT E. faecium ([10]; {}): 2-8 fold
NC[C@H]1O[C@H](O[C@H]2[C@H](O)[C@@H](O[C@H]3O[C@H](CO)[C@@H](O)[C@H](N)[C@H]3O)[C@H](N)C[C@@H]2N)[C@H](O)[C@@H](O)[C@@H]1O [KAN, kanamycin] | unaffected | – | – | – | – | – | – | – | – | – | MIC [1, 22]: 32 µg/mL (≈ 66 µM); MIC [2]: 32 µg/mL; MIC [3]: 32 µg/mL; MIC [4]: 64 µg/mL; MIC [5]: 64 µg/mL; MIC [6]: 32 µg/mL; MIC [7]: 32 µg/mL; MIC [8]: 128 µg/mL; MIC [9]: 128 µg/mL
[Cl-].[Na+] [NaCl] | – | – | – | – | – | – | – | – | – | – | MIC50 [12]: 6%
CCCCCCCCCCCCOS(=O)(=O)[O-].[Na+] [SDS, sodium dodecyl sulfate] | – | – | – | – | – | – | – | – | – | – | MIC50 [12]: 0.01%; MIC50 (E. faecium MUT_132; MUT_132, BHI, 37°C, 24 h, Bioscreen C, lowest concentration (wt/vol) with at least 50% growth inhibition, at least triplicate): 0.005%; Fold increase in susceptibility (E. faecium MUT_132; MUT_132 compared with the other strains): 2 fold
bacitracin | – | – | – | – | – | – | – | – | – | – | MIC [1, 22]: 32 µg/mL; MIC [2]: 24 µg/mL; MIC [3]: 24 µg/mL; MIC [4]: 24 µg/mL; MIC [5]: 16 µg/mL; MIC [6]: 16 µg/mL; MIC [7]: 16 µg/mL; MIC [8]: 16 µg/mL; MIC [9]: 24 µg/mL
enterocin 7 [Ent7] | – | 1.6 | 0.4 | 0.4 | 1.6 | 1.6 | 0.4 | 0.4 | 1.6 | 1.6 | –
enterocin L50 [EntL50] | – | 1.6 | 0.4 | 0.4 | 1.6 | 1.6 | 0.4 | 0.4 | 3.2 | 3.2 | –
gramicidin | unaffected | 0.006 | 0.006 | 0.006 | 0.047 | 0.047 | 0.006 | 0.006 | 0.047 | 0.047 | –
nisin (ITSISLCTPGCKTGALMGCNMKTATCHCSIHVSK; not fully specified (some residues, bridges); cysteine pairing not given here; also: lantibiotic; UniProt P13068 24-57, looked up) [lantibiotic bacteriocin, ≥900 IU/mg, Glentham Life Sciences] | – | 125 | 8 | 8 | 16 | 16 | 8 | 8 | 16 | 16 | Fold-lower sensitivity than that of WT E. faecium [10, 23]: no more than 4 fold; Fold increase in sensitivity relative to WT [11]: 16 fold
ramoplanin | unaffected | 0.4 | 0.3 | 0.3 | 0.3 | 0.3 | 0.3 | 0.3 | 0.6 | 0.6 | –
salivaricin C [SalC] | – | 25 | 12.5 | 12.5 | 50 | 50 | 12.5 | 12.5 | 50 | 50 | Fold-lower sensitivity than that of WT E. faecium [10, 23]: no more than 4 fold
weissellicin M [WelM] | unaffected | 6.3 | 6.3 | 6.3 | 25 | 25 | 6.3 | 6.3 | 50 | 50 | –
